Experimental findings from patent EP4813978A1, “COMPOUND TARGETING UBIQUITIN KRAS PROTEIN DEGRADATION AGENT, AND USE THEREOF” (Betta Pharmaceuticals Co., Ltd, priority 2023, dated 2025) are described below.

The test system of data set [1] is SW620. The experiment in a line: Cell proliferation assay (Cell-titer Glo), SW620. In kind it is cell-based. To be noted: Homo sapiens, SW-620, SW620, KRAS G12V, 96 h. The procedure:
(§1) Cells with different mutations were seeded in low-attachment transparent 96-well plates at the seeding densities shown in Table 1, and incubated overnight in a cell culture incubator. After the cells adhered, the test compounds were added to the 96-well plates at final concentrations of 20000 nM, 5000 nM, 1250 nM, 312.5 nM, 78.13 nM, 19.53 nM, 4.88 nM, 1.22 nM, 0.31 nM, 0 nM (the final concentration of DMSO was 0.25% in all wells). After culturing at 37°C for 96 h, 50 µL of Cell-titer Glo working solution was added to each well. The plates were shaken to mix and then incubated at room temperature for 10 min. Luminescence values were read on a multimode microplate reader, and the luminescence data were converted into percentage inhibition. The percentage of cell proliferation inhibition was calculated according to the following formula: Percentage inhibition = (1−(TestValue−Blank)/(MaxValue−Blank)) × 100% [formula]
(§2) ("Max value" is from the 0.25% DMSO control wells, "Blank" is from the blank medium control wells, and "Test Value" is from the compound-treated wells).
(§3) Curve fitting was performed using GraphPad Prism software to obtain IC50 (nM) values.

The test system of data set [2] is AsPC-1. The experiment in a line: Cell proliferation assay (Cell-titer Glo), AsPC-1. The settings on record: Homo sapiens, ASPC1, AsPC-1, KRAS G12D, 96 h. In kind it is cell-based. As for the experimental part: as §1, §2, §3
The subject of data set [3] is Panc0403. Nature of the data set: Cell proliferation assay (Cell-titer Glo), Panc0403. The format is cell-based. To be noted: Homo sapiens, Panc 04.03, Panc0403, KRAS G12D, 96 h. As for the experimental part:
as §1, §2, §3

The test system of data set [4] is AGS. Nature of the data set: Cell proliferation assay (Cell-titer Glo), AGS. The format is cell-based. The settings on record: Homo sapiens, KRAS G12D, 96 h. The procedure: as §1, §2, §3
Data set [5] relates to MKN-1. Nature of the data set: Cell proliferation assay (Cell-titer Glo), MKN-1. The format is cell-based. To be noted: Homo sapiens, MKN-1, KRAS WT-Amp, 96 h. The procedure: as §1, §2, §3
Data set [6] can be described thus: PK study in ICR mice, intravenous single administration. The format is in vivo. To be noted: female, 3 mg/kg. As for the experimental part:
Compound 115 was mixed with the vehicle 10% DMSO/5% Solutol/85% physiological saline, vortexed and sonicated to prepare a 0.6 mg/mL clear solution. Female ICR mice aged 6 to 7 weeks were selected, not fasted, and administered Compound 115 intravenously. Whole blood was collected at certain time points. Drug concentrations were analyzed by LC-MS/MS method, and pharmacokinetic parameters were calculated using Phoenix WinNonlin software (Pharsight, USA). Table 3. Mouse PK data for intravenous single administration of Compound 115

Data set [7] relates to HCT116. Nature of the data set: Cell proliferation assay (Cell-titer Glo), HCT116. The format is cell-based. To be noted: Homo sapiens, HCT-116, HCT116, KRAS G13D, 96 h. The procedure: as §1, §2, §3
Data set [8] in a line: PK study in Beagle dogs, intravenous single administration. The format is in vivo. The settings on record: one female and one male, 3 mg/kg. The procedure: Compound 115 was mixed with the vehicle 10% DMSO/5% Solutol/85% physiological saline, vortexed and sonicated to prepare a 1.5 mg/mL clear intravenous injection solution. Beagle dogs weighing approximately 10 kg (half male, half female) were selected, not fasted, and administered Compound 115 intravenously. Whole blood samples were collected intravenously at 5 min, 15 min, 30 min, 1 h, 2 h, 4 h, 6 h, 8 h, 10 h, 24 h, 48 h, and 72 h. Drug concentrations were analyzed by LC-MS/MS method, and pharmacokinetic parameters were calculated using Phoenix WinNonlin software (Pharsight, USA). Table 5. Beagle Dog PK data for intravenous single administration of Compound 115

The nature of data set [9]: PK study in SD rats, intravenous single administration. The settings on record: male, 3 mg/kg. The format is in vivo. The procedure: Compound 115 was mixed with the vehicle 10% DMSO/5% Solutol/85% physiological saline, vortexed and sonicated to prepare a 1.5 mg/mL clear solution. Male SD rats aged 6 to 7 weeks were selected, fasted for 8 h, and then administered Compound 115 intravenously. Whole blood was collected at certain time points. Drug concentrations were analyzed by LC-MS/MS method, and pharmacokinetic parameters were calculated using Phoenix WinNonlin software (Pharsight, USA). Table 4. Rat PK data for intravenous single administration of Compound 115

The IC50 is the concentration needed to halve the response being measured. A higher IC50 goes with weaker potency in that assay. As for `CCc1c(F)ccc2cc(O)cc(-c3nc4c5c(nc(OCC6(CN7CCC(Oc8cnc(-c9cn([C@H](C(=O)N%10C[C@H](O)C[C@H]%10C(=O)N[C@@H](C)c%10ccc(-c%11scnc%11C)cc%10)C(C)C)nn9)cn8)CC7)CC6)nc5c3F)N3CCCOC[C@H]3CO4)c12` [Compound 112, (2S,4R)-1-((S)-2-(4-(5-((1-((1-((((S)-2-(8-ethyl-7-fluoro-3-hydroxynaphthalen-1-yl)-1-fluoro-5a, 6,9,10-tetrahydro-5H,8H-4,7-dioxa-3,10a,11,13-tetraazanaphtho[1,8-ab]heptalen-12-yl)oxy)methyl)cyclopropyl)methyl)piperidin-4-yl)oxy)pyrazin-2-yl)-1H-1,2,3-triazol-1-yl)-3-methylbutanoyl)-4-hydroxy-N-((S)-1-(4-(4-methylthiazol-5-yl)phenyl)ethyl)pyrrolidine-2-carboxamide], the 50% inhibitory concentration (IC50) is 20 nM in [1]; 2.6 nM in [2]; 6.5 nM in data set [3]; 4.4 nM in [4]; 0.4 nM in data set [5].

By AUC(0-t) is commonly meant the area under the concentration-time curve up to a stated or last time point. For orientation: half-life means how long it takes for the measured level to halve. Low values mean rapid decline, high ones slow decline. On to `CCc1c(F)ccc2cc(O)cc(-c3ncc4c(N5CCOC[C@@](C)(O)C5)nc(OCC5(CN6CCC7(CCN(Cc8cnc(-c9cn([C@H](C(=O)N%10C[C@H](O)C[C@H]%10C(=O)N[C@@H](C)c%10ccc(-c%11scnc%11C)cc%10)C(C)C)nn9)cn8)CC7)CC6)CC5)nc4c3F)c12` [Compound 115, (2S,4R)-1-((S)-2-(4-(5-((9-((1-(((7-(8-ethyl-7-fluoro-3-hydroxynaphthalen-1-yl)-8-fluoro-4-((S)-6-hydroxy-6-methyl-1,4-oxazepan-4-yl)pyrido[4,3-d]pyrimidin-2-yl)oxy)methyl)cyclopropyl)methyl)-3,9-diazaspiro[5.5]undecan-3-yl)methyl)pyrazin-2-yl)-1H-1,2,3-triazol-1-yl)-3-methylbutanoyl)-4-hydroxy-N-((S)-1-(4-(4-methylthiazol-5-yl)phenyl)ethyl)pyrrolidine-2-carboxamide], for which the concentration for half-maximal inhibition (IC50) in data set [1] was 8 nM; in [2], 1.9 nM; in [7] it was 20 nM; in data set [3], 5.9 nM; in [4], 0.9 nM; in data set [5] it was 0.7 nM. The Cl_obs was determined as 13.7 mL/min/kg in data set [6], 1.96 mL/min/kg in [8] and 5.44 mL/min/kg in data set [9]. Further, the Vss_obs is listed as 9.23 L/kg in data set [6], 1.82 L/kg in data set [8] and 5.06 L/kg in data set [9]. For the same compound, the area under the curve AUC(0-t) in data set [6] (mouse, in vivo) was 3710 ng·h/mL; in data set [8] (dog, in vivo), 20700 ng·h/mL; in data set [9] (rat, in vivo) it was 9170 ng·h/mL. Moreover, the C0 came to 7510 ng/mL in data set [6] (mouse, in vivo); 22700 ng/mL in data set [8] (dog, in vivo); 17300 ng/mL in data set [9] (rat, in vivo). For the same compound, the half-life in data set [6] (mouse, in vivo) was 13.5 h; in data set [8] (dog, in vivo) it was 23.3 h; in data set [9] (rat, in vivo), 12.7 h.
